Measurements published in patent EP1923473B1, “Bis-diglycolamides (BISDGA) as new extractants for lanthanides [Ln(III)] and actinides [An(III)] from aqueous high-level wastes” (Universidad Autónoma de Madrid, priority 2006, dated 2008).

What was measured:
Format in all cases: physicochemical
[1] = Hydrolytic stability, extraction capability after contact with 3 mol/L nitric acid; details: 0.1 mol/L in n-dodecane/1-octanol (95:5)%vol; for extraction capability of Eu (III) (DEu): during the different contact time periods with 3 mol/L nitric acid
Experimental: The organic solutions of the compounds to be tested were prepared and equilibrated with 3 mol/L nitric acid, as has been indicated in sections A) and B).
Then, 700 µL of the equilibrated organic phase were put in vials of an approximate volume of 2 mL and were contacted with 700 µL of 3 mol/L nitric acid. They were stirred vigorously in an oscillating shaker for periods of 7, 15, 24, 36, 42, 50 and 66 days. After each permanent contact period with the nitric acid aqueous phase, the extraction capability of the organic solution was evaluated, taking 600 µL of the corresponding organic phase and contacting it with 600 µL of aqueous phase formed by a 3 mol/L nitric acid solution spiked with 600 Bq of ^152Eu and with 600 Bq of ^241Am. It was stirred vigorously by means of an oscillating shaker for 15 minutes. The separation of the phases was carried out by centrifugation at 5000 rpm. 400 µL of each of the phases were taken for the determination of the concentration of ^152Eu and ^241Am, as in section C).
After the permanent contact periods with the 3 mol/L nitric acid solution, the extraction capability of the organic solutions of both compounds was evaluated with 3 mol/L nitric acid solutions containing 600 Bq of ^152 Eu and 600 Bq of ^241Am.

[2] = Loading capacity (limiting organic concentration); details: 0.2 mol/L in TPH/1-octanol (95:5)%vol; 3 mol/L nitric acid
Experimental: The organic solutions were prepared and equilibrated with 3 mol/L nitric acid as detailed in the previously described sections A) and B.
Aqueous solutions of 3 mol/L nitric acid, spiked with 600 Bq of ^152Eu and 600 Bq of ^241Am, containing different amounts of stable Eu(III) (0.004 mol/L, 0.008 mol/L, 0.016 mol/L, 0.032 mol/L, 0.064 mol/L and 0.128 mol/L), obtained dissolving the corresponding amount of Eu (NO3)3·6H2O salt in 3 mol/L nitric acid, were prepared.
600 µL of equilibrated organic phase were contacted with 600 µL of aqueous phase of the corresponding concentration of Eu(III). It was stirred vigorously by means of an oscillating shaker for 15 minutes. The phases were separated by centrifugation at 5000 rpm and 400 µL of each of the phases were taken for the determination of the concentration of ^152Eu and ^241Am, as described previously in section C).
The loading capacity was determined according to the limiting organic concentration or LOC, which is the highest concentration of metal admitted by the organic phase before the third phase appears, as a result of the organic phase separating into two phases: a light or less heavy phase formed mainly by the organic solvent and a heavy phase formed by the complex formed by the extractant and the metal. […]

[3] = Extraction capability from aqueous 3 mol/L nitric acid; details: 0.1 mol/L in TPH/1-octanol (50:50)%vol; aqueous [HNO3] 3 mol/L spiked with 152Eu(III) and 241Am(III)
Experimental: The organic solutions of the extractant compounds to be tested were prepared dissolving an amount of the extractant compound in the solvent considered in each case to reach the ligand concentration of 0.1 mol/L. The solvents considered were 1-octanol, n-heptane, n-dodecane, the industrial solvent "TPH" (hydrogenated tetrapropylene) used in the "La Hague" reprocessing plant of the COGEMA company (Compagnie générale des matières nucléaires) and different mixtures "TPH/1-octanol or n-dodecane/1-octanol".
Once said solution was obtained, its equilibration was carried out. To that end, 800 µL of the organic solution of the compound to be studied were contacted with 800 µL of nitric acid of 3 mol/L concentration and it was stirred vigorously in an oscillating shaker for 5 minutes. The phases were separated by centrifugation at 5000 rpm. 800 µL of the said organic phase were again contacted with 800 µL of nitric acid of 3 mol/L concentration for another 5 minutes of vigorous shaking. The phases were separated by centrifugation, the organic phase being considered to be equilibrated.
600 µL of the organic phase of the compound to be studied, previously equilibrated, were contacted with 600 µL of aqueous phase consisting of a 3 mol/L nitric acid solution spiked with 600 Bq of ^152Eu and 600 Bq of ^241Am. It was stirred vigorously by means of an oscillating shaker for 30 minutes and the phases were separated by centrifugation at 5000 rpm. 400 µL were taken from each of the phases for determining the concentration of the radionuclides ^152Eu and ^241Am. This determination was carried out by means of the high energy gamma spectrometry technique with a high-purity Ge detector (Canberra Inc.), using the 122 keV line for the determination of ^152Eu concentration and the 59.5 keV line for the determination of ^241Am concentration. The distribution coefficient was calculated by relating the concentration of each of the radionuclides in the organic phase and in the aqueous phase, according to the expression: DM = ([M]org)/([M]aq) [formula]
The distribution coefficients and the selectivity factor of each of them were determined as indicated in sections A) to C).

[4] = Re-extraction with diluted nitric acid solutions; details: 0.1 mol/L in TPH/1-octanol (95:5)%vol; for re-extraction steps necessary: 0.016 mol/L of stable Eu(III) present
Experimental: 0.1 mol/L samples of compound 4 in a "TPH/1-octanol (95:5)%vol" mixture were prepared. Extractions of Am(III) and Eu(III) were carried out from 3 mol/L nitric acid solutions containing only the radionuclides ^152Eu and ^241Am and 3 mol/L nitric acid solutions containing the radionuclides ^152Eu and ^241Am and 0.016 mol/L of stable Eu(III), simulating the total concentration of Ln(III) in a HLLW from the PUREX process. Once the extraction process was carried out, a washing step with a 1 mol/L nitric acid solution was carried out. Then, different re-extraction steps were carried out with 0.01 mol/L nitric acid solutions, simulating a continuous process. The evolution of the concentration of Am(III) and Eu(III) in the organic phase in the different extraction, scrubbing and re-extraction steps is shown in Figure 14.
Nevertheless, it is possible to regenerate the organic solutions of compound 18 for subsequent extraction cycles in an industrial continuous process.

Substance	DAm ([1]; after 42 days of permanent contact with 3 mol/L nitric acid)	extraction capability of Eu (III) (DEu) [1]	LOCEu [2]	DAm [3]	DEu [3]	re-extraction steps necessary ([4]; 0.01 mol/L nitric acid)	re-extraction steps for complete re-extraction ([4]; only the radionuclides 152Eu and 241Am present, 0.01 mol/L nitric acid)	DAm ([1]; after 66 days of permanent contact with 3 mol/L nitric acid)	Am(III) and Eu(III) recovered from the organic phase ([4]; tracers only (152Eu and 241Am), after three re-extraction steps with 0.01 mol/L nitric acid)
2-Dioctylcarbamoylmethoxy-N-[3-[3-(2-dioctylcarbamoyl-methoxyacetylamino)propoxy]propyl]acetamide [Compound 18]	280	remains constant	~ 0.06 mol/L	29	177	six re-extraction steps	four re-extraction steps		
2-Dioctylcarbamoylmethoxy-N-[3-[(2-dioctylcarbamoyl-methoxy-acetylamino)methyl]benzyl]acetamide [Compound 4]		remains constant	~ 0.03 mol/L	33	141	an additional re-extraction step is necessary		145	more than 99.9%
